In one test the test system is AKT phosphorylation. In words: Western blotting of FcεRI-activated phospho-signaling in MC: AKT. In kind it is cell-based, human. Particulars: 10 μg/mL overnight. As for the experimental part: (§1) Cell lysate preparation and Western blotting were performed using a protocol optimized for extracting phospho-proteins from human MC. Tkaczyk, C., Metcalfe, D. D., and Gilfillan, A. M. J. Immunol. Methods 268, 239-243 (2002). Following activation, cells were lysed directly in boiling denaturing sample buffer consisting of tris-buffered saline with triton-X-100 (0.5%) and protease and phosphatase inhibitors. The cell suspension was then passed through a 20-gauge needle, boiled, and centrifuged to remove cell debris. Proteins were separated on 8% or 10% NuPage Tris-Bis gels using Licor running buffer. Western blotting was performed using Licor blocking buffer and IR800 and IR700 anti-rabbit F(ab)2 secondary Abs (1:1000). Primary Abs were from Cell Signaling Technologies or Santa Cruz unless otherwise noted. Band intensities were captured using the Odyssey Imaging System and bands quantified by measuring the number of pixels in each band using a box drawn for the same area of measurement for each separate blot. The band intensity was then normalized for loading by dividing the number of pixels in each band with the housekeeping band intensity (β-actin) performed on the same blot.
(§2) MC were pretreated with Inos or TGA (10 μg/mL) overnight at 37° C./6% CO2. The next day washed cells were activated with or without anti-FcεRI (1 μg/mL) for the indicated times and lysed using protocols described above. Two separate 10% Tris-Glycine gels were used for sodium dodecyl sulfate polyacrylamide gel electrophoresis (SDS-PAGE) and Western blotting performed with the indicated phosphorylation-specific (i.e., phosph-Lyn) antibodies. To ensure equal loading, an antiactin antibody was used in parallel. The intensity of each band was detected and quantified using an Odyssey imaging system. Band intensities are presented as a ratio compared to antiactin band intensities probed in the same lane and presented for each time point in the colored graphs on the right side. Results are representative of three separate experiments. […]
(A western blot detects proteins with antibodies after separation by electrophoresis.)

For test [1], the system named is PI3-kinase phosphorylation. As to the kind of experiment: Western blotting of FcεRI-activated phospho-signaling in MC: PI3-kinase. In kind it is cell-based, human. The following applies: 10 μg/mL overnight. The protocol: as §1, §2
The next test has as its system inflammatory arthritis. As to the kind of experiment: Murine arthritis model (arthritogenic serum): clinical indices and ankle swelling. The class given is in vivo, mice (C57/B6). The protocol:
To induce disease, C57/B6 (5 mice/cage/group) mice were injected intraperitoneally (IP) on Days 1 and 3 with 100 μl of arthritogenic serum. […] As a control 100 μl of PBS without serum was injected in the control group. Swelling in each ankle was measured along with the clinical indices as described (Lee, D M, Science 2002, Sep. 6; 297(5587):1689-92). Measurements were performed every second day by personnel blinded to the identity of the injections. After 14 days mice were sacrificed and ankle sections removed for histology and serum obtained for cytokine analysis. Error bars, SEM. In FIG. 5A, clinical index was given as the sum of observed inflammation (per paw): 0=no evidence of inflammation; 1=subtle inflammation (metatarsal phalanges joints, individual phalanx, or localized edema); 2=easily identified swelling but localized to either dorsal or ventral surface of paw; and 3=swelling on all aspects of paw. Maximum score=12. In FIG. 5B, the sum of the measurement in ankle swelling at each day was given. The * indicates significant differences observed on that day in fullerene compared to non-fullerene-treated mice. Prior to injection, 5 was incorporated into liposomes with egg phosphatidylcholine (PC) at a ratio of 1:2. 7 was dissolved in PBS buffer at pH 7.4. […]

The next test relates to LAT phosphorylation. As to the kind of experiment: Western blotting of FcεRI-activated phospho-signaling in MC: LAT. The following applies: 10 μg/mL overnight. In kind it is cell-based, human. The protocol:
as §1, §2

The subject of a further test is FcεRI activated genes. As to the kind of experiment: Gene microarray of FcεRI-activated MC. In kind it is cell-based, human. As for the experimental part:
Mast cells (1×10^7 cell/condition; each condition performed in triplicate) were incubated with or without fullerene derivatives as above and incubated with or without anti-FcεRI antibodies for 10 minutes, supernatants were removed (to remove pre-formed mediators), and fresh warm medium containing anti-FcεRI antibodies (14 ml) added for 2 hours. Cells were centrifuged, the supernatant and the pellet immediately frozen and microarray performed using the Human Whole Genome OneArray™ gene expression profiling service (Phalanx Biotech Group). Separate samples, assayed in parallel were lysed and protein expression analyzed by Western blotting or flow cytometry (CD45) as described in Kepley, C. L., Pfeiffer, J., Wilson, B. W., Schwartz, L. B., and Oliver, J. M. J. Leukocyte Biol. 64, 474-483 (1998).
For microarray RNA was isolated using the Ambion MessageAmp aRNA kit; all samples passed the internal quality control checks. For hybridization each sample was run in triplicate. Optical density was measured by NanoDrop ND-1000. The ratio of absorbance at 260 nm and 280 nm provides an estimate of RNA purity. […] The reactive amino group of 5-(3-aminoallyl)-UTP/5-(3-aminoallyl)-dUTP was used to conjugate the purified aRNA/cDNA with the NHS-CyDye. Labeling efficiency was calculated by the concentration of CyDye and aRNA/cDNA which was above 10. For hybridization 10 μg Cy5-labeled aRNA was utilized by the Phalanx Hybridization Protocol Array Version HOA 4.3.
Pearson correlation tables (R values) for each technical repeat were calculated from raw log 2 intensity (R) and normalized log 2 intensity (N) values and compared to each other. Only probes with P value (detected) less than 0.05 were included in the calculation. […] Greater than 95% of the samples had R values of 0.8 or greater indicating strong correlation between the two parameters.
In order to examine the genes most affected by fullerene derivative preincubation the resulting values were sorted and filtered the following way. First, the mean (±SD) of the six values from each condition for each of the 30,970 genes was calculated. […]

The next test relates to MC-induced anaphylaxis. In words: MC-dependent anaphylaxis model: core body temperature. The class given is in vivo, mice (C57BL/6J). Particulars: 100 ng i.p. before DNP-BSA challenge.

The source of these data is patent publication US20110251158A1, “FULLERENE THERAPIES FOR INFLAMMATION AND INHIBITION OF BUILD-UP OF ARTERIAL PLAQUE” (Luna Innovations Incorporated, priority 2008, published 2011).

Regarding C70-tetraglycolic acid [TGA], the “inhibited AKT phosphorylation” value was determined as 10% in the test with AKT phosphorylation (3 minutes anti-FcεRI), 36% with AKT phosphorylation (5 minutes anti-FcεRI) and 43% in the test with AKT phosphorylation (10 minutes anti-FcεRI). Moreover, the “reduced PI3-kinase phosphorylation” value in test [1] (3 minutes) is given as 15%; in test [1] (5 minutes) it was 35%; in test [1] (10 minutes), 50%. Moreover, the Inflammation result with inflammatory arthritis (200 ng/100 μl IP, days 6 to 12, p<0.03) is “significantly inhibited”; with inflammatory arthritis (2000 ng/100 μl IP, days 10 to 14, p<0.02), “significantly inhibited”. Moreover, the “reduced LAT phosphorylation” value in the test with LAT phosphorylation (3 minutes) is 36%; in the test with LAT phosphorylation (5 minutes) it was 72%; in the test with LAT phosphorylation (10 minutes) it was 69%. The “genes whose FcεRI-induced activation was reduced” value in the test on FcεRI activated genes is on record as “over 1000”. The “genes decreased at least 20% compared to non treated cells” value in the test on FcεRI activated genes (2 hours FcεRI activation) is recorded as 2,603. In addition, the “genes with greater than 50% inhibition” value in the test with FcεRI activated genes (2 hours FcεRI activation) was 515. Further, the “anaphylactic-induced drop in core body temperature” value with MC-induced anaphylaxis was “significant reduction”.
